Measured values as given in US20030068615A1, “Polypeptides that bind HIV gp120 and related nucleic acids, antibodies, compositions, and methods of use” (priority 1999, published 2003).
“And” between values parts separate entries of the source, which are not always exact repeats. Identical values can stand only once. Like-named read-outs stand apart in the source and are kept apart here.

Molecular target: HIV-1LAI envelope gp120 (Human immunodeficiency virus type 1 group M subtype B, UniProt P03377)
Format: binding
Conditions: for Counts per 20′ Average-background: CCR5 18-mer scan; for number of radioactive decays (counts) counted: human CD4 21-mer scan, empty control 2075; for Relative % of Control: mean of two syntheses and binding experiments ± average deviation, wild-type = 100%; for Binding Results For Window Length (counts bound-background), 9: 9-mer starting at the first residue of the printed sequence; for Binding Results For Window Length (counts bound-background), 12: 12-mer starting at the first residue of the printed sequence
[1] = radiolabeled HIV-1LAI gp120, background subtracted
[2] = Panel C, 15-mers and 18-mers of CD4, empty control 556
[3] = STRL33 18-mer scan, background subtracted, first of two count columns
[4] = STRL33 18-mer scan, background subtracted, second of two count columns
[5] = Panel E, 9-mers and 12-mers of CD4, empty control 571
[6] = Panel D, 9-mers and 12-mers of CD4, empty control […]
[7] = STRL33 amino terminus, background subtracted
[8] = Panel B, 15-mers and 18-mers of CD4, empty control 575
[9] = CXCR4 18-mer scan, background subtracted, empty control 0
[10] = CXCR4 18-mer scan, empty control 412
[11] = Panel F, sequential alanine replacements of CD4 polypeptides, duplicate series, empty control 569
[12] = Panel G, alanine replacements and serial truncations (Z) of CD4 polypeptides, empty control 580

KIVILGLVLPLLVMVICY
Counts per 20′ Average-background [1]: 65 counts per 20′

RCRHRRRQAERMSQIKRLLSE [human CD4 421-441]
number of radioactive decays (counts) counted: 2075 counts

EFSFPLAFTVEKLTGSGE
COUNTS of radiolabeled gp120 retained [2]: 668 counts

QVEFSFPLAFTVEKL
COUNTS of radiolabeled gp120 retained [2]: 2047 counts

TLLHAGGFQKHRSLKIIF
radioactive counts recorded in twenty minutes [3]: 1041.5 counts
radioactive counts recorded in twenty minutes [4]: 999.5 counts

MDYQVSSPIADINYYTSE [CCR5 (1-18) variant Y10A]
Relative % of Control (CCR5 (1-18) alanine variants): 19 ± 6%
percentage of binding of mutant polypeptide compared to wild-type polypeptide, gp120 (CCR5 alanine mutant peptide, radiolabeled HIV-1LAI gp120): 19.2%

SFPLAFTVEKLT
COUNTS of radiolabeled gp120 retained [5]: 528 counts

IKNLKIEDSDTY
COUNTS of radiolabeled gp120 retained [6]: 574 counts

KIDIVVLAFQKA
COUNTS of radiolabeled gp120 retained [5]: 689 counts

YAGSGNLTLALEAKTGKLHQE [human CD4 291-311]
number of radioactive decays (counts) counted: 1830 counts

EHDYHEDYGFSSFNDSSQ
Binding Results For Window Length (counts bound-background), 9 [7]: 509 counts
Binding Results For Window Length (counts bound-background), 12 [7]: 937 counts
Binding Results For Window Length (counts bound-background), 15 (STRL33 amino terminus, 15-mer starting at the first residue of the printed sequence, background subtracted): 2235 counts
Binding Results For Window Length (counts bound-background), 18 (STRL33 amino terminus, 18-mer starting at the first residue of the printed sequence, background subtracted): 1219 counts

GEKFRNYLLVFFQKHIAK [CCR5 segment 301-]
Counts per 20′ Average-background [1]: 69 counts per 20′

PLIIKNLKIEDSDTY
COUNTS of radiolabeled gp120 retained [8]: 661 counts

TANSDTHLLQGQSLTLTL
COUNTS of radiolabeled gp120 retained [8]: 891 counts

MEGASIYTSDNYTEEMGS
Relative % of Control (CXCR4 (1-18) alanine variants): 6 ± 0.3%

EEVQLLVFGLTA
COUNTS of radiolabeled gp120 retained [6]: 3261 counts

MEGISIYTSDNYTEEMGS
radioactive counts recorded in twenty minutes [9]: 2591 counts
radioactive counts recorded in twenty minutes [10]: 3003 counts
Relative % of Control (CXCR4 (1-18) alanine variants): 100%

WGPTSPKLMLSLKLENKEAKV [human CD4 331-351]
number of radioactive decays (counts) counted: 2414 counts

GNFPLIIKNLKIEDSDTY
COUNTS of radiolabeled gp120 retained [8]: 557 counts

EEVQLLVFGLTANAD
COUNTS of radiolabeled gp120 retained [11]: 17928 counts and 17684 counts

DTHLLQGQSLTLTLE
COUNTS of radiolabeled gp120 retained [8]: 1622 counts

ATQMTLGFFLPLLTMIVC [STRL33 segment 193-210]
radioactive counts recorded in twenty minutes [3]: 2365.5 counts
radioactive counts recorded in twenty minutes [4]: 2444.5 counts

ANSDTHLLQGQSLTLTLE
COUNTS of radiolabeled gp120 retained [8]: 1540 counts

FHCCLNPILYAFLGAKFK [CXCR4 segment 293-310]
radioactive counts recorded in twenty minutes [9]: 123 counts
radioactive counts recorded in twenty minutes [10]: 535 counts

IVVLAFQKA
COUNTS of radiolabeled gp120 retained [5]: 602 counts

EKLTGSGELWWQ
COUNTS of radiolabeled gp120 retained [5]: 543 counts

DSDTYICEVEDQ
COUNTS of radiolabeled gp120 retained [6]: 937 counts

QKEEVQLLVFGLTANSDT
COUNTS of radiolabeled gp120 retained [8]: 3671 counts

LVSLPQIIYGNVFNLDKL
radioactive counts recorded in twenty minutes [3]: 91.5 counts
radioactive counts recorded in twenty minutes [4]: −15.5 counts

SIVYKKEGEQVEFSFPLA
COUNTS of radiolabeled gp120 retained [2]: 771 counts

QAMQVTETLGMTHCCINP [CCR5 segment 277-]
Counts per 20′ Average-background [1]: 81 counts per 20′

YKKEGEQVEFSFPLAFTV
COUNTS of radiolabeled gp120 retained [2]: 4839 counts

GEQVEFSFPLAFTVA
COUNTS of radiolabeled gp120 retained [12]: 18371 counts and 18187 counts

VYKKEGEQV
COUNTS of radiolabeled gp120 retained [5]: 490 counts

AARLLPPLYSLVFIFGFV [CCR5 segment 29-46]
Counts per 20′ Average-background [1]: 33 counts per 20′

LAFTVEKLT
COUNTS of radiolabeled gp120 retained [5]: 501 counts

EDQKEEVQLLVFGLTANS
COUNTS of radiolabeled gp120 retained [8]: 3416 counts

LAFTVEKLTGSGELW
COUNTS of radiolabeled gp120 retained [2]: 579 counts

QGNFPLIIKNLKIED
COUNTS of radiolabeled gp120 retained [8]: 509 counts

NFPLIIKNL
COUNTS of radiolabeled gp120 retained [6]: 561 counts

DRYLAIVHATNSQRPRKL
radioactive counts recorded in twenty minutes [9]: 168 counts
radioactive counts recorded in twenty minutes [10]: 580 counts

GLHYTCSSEFPYSQYQFW
Counts per 20′ Average-background [1]: 301 counts per 20′

QKASSIVYKKEG
COUNTS of radiolabeled gp120 retained [5]: 596 counts

STPVQPMALIVLGGVAGLLLF [human CD4 391-411]
number of radioactive decays (counts) counted: 2527 counts

GEQVEFSFPLAFTVEKLT
COUNTS of radiolabeled gp120 retained [2]: 1643 counts

KEEVQLLVFGLT
COUNTS of radiolabeled gp120 retained [6]: 1774 counts

EVQLLVFGLTANSDTHLL
COUNTS of radiolabeled gp120 retained [8]: 667 counts

KKEGEQVEFSFP
COUNTS of radiolabeled gp120 retained [5]: 598 counts

IVVLAFQKASSIVYKKEGEQV
COUNTS of radiolabeled gp120 retained (Panel A, 21-mers of CD4, empty control 515 and 617): 646 counts

EEVQLLVFGLTANSD
COUNTS of radiolabeled gp120 retained [8]: 6423 counts
COUNTS of radiolabeled gp120 retained [11]: 18721 counts and 18582 counts and 19738 counts and 21338 counts
COUNTS of radiolabeled gp120 retained [12]: 18040 counts and 23357 counts

SQKEGLHYTCSSHFPYSQ [CCR5 segment 169-]
Counts per 20′ Average-background [1]: 304 counts per 20′

DQKEEVQLL
COUNTS of radiolabeled gp120 retained [6]: 589 counts

SVITWVVAVFASLPGIIF
Counts per 20′ Average-background [1]: 46 counts per 20′

EQVEFSFPLAFT
COUNTS of radiolabeled gp120 retained [5]: 1556 counts

ICEVEDQKEEVQLLV
COUNTS of radiolabeled gp120 retained [8]: 1084 counts

EGEQVEFSFPLA
COUNTS of radiolabeled gp120 retained [5]: 1456 counts

HEWVFGQVMCKSLLGIYT [STRL33 segment 93-110]
radioactive counts recorded in twenty minutes [3]: 3391.5 counts
radioactive counts recorded in twenty minutes [4]: 3466.5 counts

YDSMKEPCFREENANFNK [CXCR4 segment 21-38]
radioactive counts recorded in twenty minutes [9]: 53 counts
radioactive counts recorded in twenty minutes [10]: 465 counts

LLVFGLTANSDTHLL
COUNTS of radiolabeled gp120 retained [8]: 599 counts

SDTHLLQGQ
COUNTS of radiolabeled gp120 retained [6]: 526 counts

IVYKKEGEQVEFSFPLAF
COUNTS of radiolabeled gp120 retained [2]: 5382 counts

GEAVEFSFPLAFTVE
COUNTS of radiolabeled gp120 retained [12]: 19756 counts and 17500 counts

IDIVVLAFQKAS
COUNTS of radiolabeled gp120 retained [5]: 630 counts

GEQVEASFPLAFTVE
COUNTS of radiolabeled gp120 retained [12]: 6793 counts and 6533 counts

SDTYICEVEDQKEEV
COUNTS of radiolabeled gp120 retained [8]: 993 counts

QEAPERASSVYTRSTGEQ [CCR5 segment 329-]
Counts per 20′ Average-background [1]: 84 counts per 20′

FPLIIKNLKIED
COUNTS of radiolabeled gp120 retained [6]: 511 counts

SKTFSASHNVEATSMFQL [STRL33 segment 325-342]
radioactive counts recorded in twenty minutes [3]: 1524.5 counts
radioactive counts recorded in twenty minutes [4]: 1239.5 counts

SQEEHQAFLQFS
Binding Results For Window Length (counts bound-background), 9 [7]: 647 counts
Binding Results For Window Length (counts bound-background), 12 [7]: 7512 counts

IYDINYYTSEPCQKINVK [CCR5 segment 9-26]
Counts per 20′ Average-background [1]: 228 counts per 20′

IIKNLKIED
COUNTS of radiolabeled gp120 retained [6]: 658 counts

QNQKKVEFKIDIVVLAFQ
COUNTS of radiolabeled gp120 retained [2]: 917 counts

LLGIYTINFYTSMLILTC
radioactive counts recorded in twenty minutes [3]: 499.5 counts
radioactive counts recorded in twenty minutes [4]: 408.5 counts

EGEQVEFSFPLAFTVEKL
COUNTS of radiolabeled gp120 retained [2]: 2164 counts

LAFQKASSI
COUNTS of radiolabeled gp120 retained [5]: 592 counts

KASSIVYKKEGE
COUNTS of radiolabeled gp120 retained [5]: 559 counts

GVVTSVITWVVAVFASLP
Counts per 20′ Average-background [1]: 69 counts per 20′

EGEQVEFSF
COUNTS of radiolabeled gp120 retained [5]: 735 counts

NSDTHLLQGQSLTLT
COUNTS of radiolabeled gp120 retained [8]: 631 counts

VTETLGMTHCCINPIIYA [CCR5 segment 281-]
Counts per 20′ Average-background [1]: 15 counts per 20′

IIKNLKIEDSDTYIC
COUNTS of radiolabeled gp120 retained [8]: 664 counts
